According to patent US9018174B2, “Mouse model and treatment of hereditary inclusion body myopathy” (HIBM Research Group, Inc., priority 2008, dated 2015):
Where a chain is given by its changes, count along the chain named. Where “and” joins values, the source holds several entries; their conditions need not be identical. Identical values can stand only once. Entries after “also recorded” stand apart in the source; their conditions may differ.

How the values were obtained:
GNE-M712T knock-in mice [1] = experiment: Rescue of GNE-M712T knock-in mice by ManNAc feeding (survival of homozygous pups); assay type: in vivo, mouse
Protocol: GNE-M712T mice. GNE-M712T knock-in mice were generated by targeting the M712T (ATG>ACG) mutation exon 12 of the murine GNE gene (Uae1, Gne, GenBank NM_015828). The mutant mice were maintained in the C57BL/6J background. Animals were housed in ventilated cages in a temperature- and light-controlled environment (22° C., 30-70% humidity, 12-hour light/12-hour dark cycle) and were fed irradiated chow (Prolab 5P75 Isopro 3000; PMI Nutrition International) and water ad libitum. All euthanasia was performed with by CO2 followed by cervical dislocations. For Mendelian distribution studies, four pregnant mice E17-19 were euthanized and embryos were retrieved by cesarean section and euthanized by decapitation. All mouse procedures were performed in accordance with protocol G04-3 approved by the Institutional Animal […] and Use Committee of the National Human Genome Research Institute, National Institutes of Health Institutional Review Board.
(§1) ManNAc administration. Breeding pairs of 6-week-old +/− mice were divided into three groups. Group I consisted of 9 +/− breeding pairs who were administered untreated sterilized tap water. Group II consisted of one breeding pair of +/+ mice (wild-type control) and 6 +/− breeding pairs who were administered 1 mg/ml ManNAc (Sigma) supplemented water. Group III consisted of one +/+ breeding pair and 7 +/− breeding pairs who were administered 5 mg/ml ManNAc supplemented water. Water was changed twice weekly. Nursing females continued to be supplied with ManNAc. All mice were weaned from ManNAc at 21 days. Selected whole litters were sacrificed at age P2 or P6 for histological, genetic, biochemical or ultrastructural analysis.
Statistical analysis. Differences in genotype distribution (+/+: +/−-−/−) between an untreated control group and ManNAc treated group were tested by a two-tailed Fisher's exact test. To this end a 2×3 table was generated.

[2] = tested on: GNE-deficient mouse embryonic stem cells; conditions: growth medium supplemented with ManNAc; cited from earlier work
podocalyxin = experiment: Immunoblot of podocalyxin sialylation in kidney extracts after ManNAc feeding; assay type: in vivo, mouse; conditions: -/- kidneys
Excerpt: (§2) Antibodies. A rabbit polyclonal antibody was custom prepared against a GNE/MNK peptide comprising amino acids 588-607: […] (SEQ ID NO:24), coupled to keyhole limpet hemocyanine (KLH) and affinity-purified against the corresponding antigenic peptide (Covance). Other primary antibodies were commercially obtained: dystrophin (ab15277, AbCam), α-dystroglycan (IIH6, Upstate Biotechnology), laminin (L9393, Sigma-Aldrich), podocalyxin (PODX15-A, Alpha Diagnostic International), PSA-NCAM (MAB5324, Chemicon), and β-actin (AAN01, Cytoskeleton).
(§3) Western blotting. Mouse tissues (age P2) were extracted, homogenized in CelLytic buffer, consisting of a mild detergent, bicine buffer and 150 mM NaC (CelLytic) supplemented with protease inhibitors (Complete Minia, Roche). The lysates were sonicated and cleared by centrifugation (1000 g for 10 min), and the resulting supernatants were assayed for protein concentration (BCA protein assay, Pierce). For the neuraminidase enzymatic treatments, protein homogenates (25 μg) were incubated with 1 mU/μg of Neuraminidase (N-6514, Sigma) for 30 min at 37° C. Equal amounts of protein (25-50 μg) were electrophoresed on 4-12% Tris-Glycine gels (Novex, Invitrogen), and electroblotted onto 0.45 μm Hybond ECL nitrocellulose membranes (Amersham Pharmacia Biotech). […]

[3] = biological target: T1, UDP-GlcNAC 2-epimerase (GNE) (Mus musculus, UniProt Q91WG8, M712T); experiment: GNE/MNK epimerase enzymatic assay on tissue after ManNAc feeding; assay type: in vivo; conditions: -/- mice, skeletal muscle, age P2, ManNAc treatment, n=7; untreated -/- 19%
T1 construct: Mouse kidney and skeletal muscle (hindlimb quadriceps) tissues were homogenized; from tissue; host or cells: skeletal muscle and kidney of GNE-M712T knock-in mice (C57BL/6J), age P2
T1 sequence (Q91WG8 1-722 M712T): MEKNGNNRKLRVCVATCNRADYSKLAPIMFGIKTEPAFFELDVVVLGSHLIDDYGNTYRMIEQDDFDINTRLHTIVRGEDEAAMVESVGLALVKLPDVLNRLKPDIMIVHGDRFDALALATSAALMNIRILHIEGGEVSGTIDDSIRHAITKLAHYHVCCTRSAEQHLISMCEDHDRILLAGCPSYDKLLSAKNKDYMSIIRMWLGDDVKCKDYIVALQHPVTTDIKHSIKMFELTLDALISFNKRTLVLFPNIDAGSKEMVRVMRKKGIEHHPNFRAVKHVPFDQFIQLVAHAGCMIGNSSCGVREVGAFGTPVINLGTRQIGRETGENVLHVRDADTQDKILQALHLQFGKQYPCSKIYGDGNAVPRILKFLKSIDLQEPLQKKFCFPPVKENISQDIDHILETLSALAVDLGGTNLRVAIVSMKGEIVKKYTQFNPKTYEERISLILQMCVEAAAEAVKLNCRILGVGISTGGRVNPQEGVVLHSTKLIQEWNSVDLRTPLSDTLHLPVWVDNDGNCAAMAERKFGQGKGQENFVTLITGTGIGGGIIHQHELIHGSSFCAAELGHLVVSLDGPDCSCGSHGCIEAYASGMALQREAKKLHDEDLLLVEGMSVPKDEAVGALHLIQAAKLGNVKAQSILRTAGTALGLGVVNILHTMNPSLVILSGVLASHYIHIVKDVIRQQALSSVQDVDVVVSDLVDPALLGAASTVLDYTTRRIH
Protocol: as §1
(§4) GNE/MNK enzymatic assays. Mouse kidney and skeletal muscle (hindlimb quadriceps) tissues were homogenized and subjected to the GNE/MNK epimerase enzymatic assay as described^11,44. This assay is based on incubation with radiolabeled substrate (UDP-[^3H]GlcNAc; American Radiolabeled Chemicals), and detection of radiolabeled product ([^3H]ManNAc) upon separation of oligosaccharides by high pH anion-exchange chromatography with pulsed amperometric detection (Dionex).

[4] = biological target: T2, UDP-GlcNAC 2-epimerase (GNE) (Mus musculus, UniProt Q91WG8); experiment: as above; assay type: in vivo; conditions: +/+ mice, skeletal muscle, age P2, ManNAc treatment, n=3
T2 construct: Mouse kidney and skeletal muscle (hindlimb quadriceps) tissues were homogenized; from tissue; host or cells: skeletal muscle and kidney of GNE-M712T knock-in mice (C57BL/6J), age P2
T2 sequence (Q91WG8 1-722): T1 sequence (Q91WG8 1-722 M712T) with T712M
Protocol: as §1, §4

GNE-M712T knock-in mice [5] = experiment: Tissue histology and electron microscopy of ManNAc treated -/- mice at P6; assay type: in vivo, mouse; conditions: age P6
Protocol: Mouse Histology. Mouse tissues were collected, formalin-fixed and paraffin-embedded. Tissue sections (5 μm) were prepared and stained with hematoxylin and eosin following standard procedures (American Histolabs) or subjected to immunohostochemistry with a variety of primary antibodies. Formalin fixed tissues were deparafinized in Histoclear II (National Diagnostics), […] in a series of ethanol solutions. Antigen retrieval was performed for sections to be stained with the antibodies GNE/MNK (5 min boiling in citric acid based solution; Vector Laboratories) and dystrophin (boiling in 1 mM EDTA, according the manufacturer's protocol; AbCam). The sections were blocked (2% BSA, 10% donkey serum and 0.1% Triton X-100 in PBS) and incubated with primary antibodies (GNE/MNK 1:50; laminin 1:25; dystrophin 1:50) overnight at 4° C., followed by the secondary antibody Alexa 488 donkey-anti-rabbit (1:500 in blocking solution) (Invitrogen). The sections were mounted in Vectashield (Vector Laboratories) and viewed and digitally imaged with a Zeiss Axiovert 200M microscope (Carl Zeiss, Microimaging).
Electron Microscopy. […] The grids were viewed with a Philips 410 electron microscope (FEI Company) at 80 kV and images were recorded on Kodak SO-163 film (Kodak). […]

GNE/MNK protein = biological target: T3, GNE/MNK protein (Mus musculus, UniProt Q91WG8, M712T); experiment: Immunoblot with anti-GNE/MNK antibodies of muscle and kidney extracts after ManNAc feeding; assay type: in vivo; conditions: ManNAc treated, referenced to β-actin, untreated -/- 78% decreased
T3 construct: Mouse kidney and skeletal muscle (hindlimb quadriceps) tissues were homogenized; from tissue; host or cells: skeletal muscle and kidney of GNE-M712T knock-in mice (C57BL/6J), age P2
T3 sequence (Q91WG8 1-722 M712T): T1 sequence (Q91WG8 1-722 M712T)
Excerpt: as §2, §3

PSA-NCAM = experiment: Immunoblot with PSA-NCAM antibodies of brain tissue after ManNAc feeding; assay type: in vivo, mouse; conditions: n=14 pre treatment, n=10 post treatment, p=0.08
Excerpt: as §2, §3

cultured cells = conditions: SiaLev or SiaNAz as downstream product; cited from earlier work
[6] = ManNAc 1 g/kg/day to +/- breeding pairs

CC(=O)N[C@@H]1C(O)O[C@H](CO)[C@@H](O)[C@@H]1O (some centres unmarked) [ManNAc, N-acetylmannosamine]
surviving homozygous mice beyond age P3 (GNE-M712T knock-in mice [1]; 1 mg/ml ManNAc in drinking water during matings of +/- mice, 51 offspring): did not yield any surviving homozygous mice beyond age P3
homozygous pups surviving beyond P3, % of total -/- pups (GNE-M712T knock-in mice [1]; 5 mg ManNAc/ml in drinking water): 44%
number of homozygous pups that survived beyond P3 (GNE-M712T knock-in mice [1]; 5 mg ManNAc/ml in drinking water, out of 97 newborn pups): 11
homozygous mice that survived past P21 (GNE-M712T knock-in mice [1]; 5 mg ManNAc/ml in drinking water, supplementation ceased at P21): Two
-/- offspring that survived past P3 (GNE-M712T knock-in mice [1]; [6]): 42%
survivors past P3 that lived past weaning age P21 (GNE-M712T knock-in mice [1]; [6]): 18%
effect on survival of homozygous pups (GNE-M712T knock-in mice [1]; administration of ManNAc to pregnant mothers): remarkably salutary effect on survival of homozygous pups
sialylation of hyposialylated cells [2]: became resialylated
podocalyxin sialylation status (podocalyxin): did not result in a statistically significant increase
residual GNE activity in -/- muscle, relative to untreated +/+ set at 100% [3]: 31 (±9) % and 31%
GNE activity in +/+ muscle, relative to untreated +/+ set at 100% [4]: 114 (±10) % and ~114%
abnormalities in liver, heart and skeletal muscle tissues (GNE-M712T knock-in mice [5]): No abnormalities
kidney histology (GNE-M712T knock-in mice [5]): mildly to remarkably improved histological features; also recorded: mildly to significantly improved kidney histology
decreased amount of GNE/MNK protein compared to +/+ littermates (GNE/MNK protein): 41 (±3) %
increased PSA-NCAM signal compared to untreated -/- tissues (PSA-NCAM): 2-28%

CC(=O)CCC(=O)N[C@@H]1C(O)O[C@H](CO)[C@@H](O)[C@@H]1O (some centres unmarked) [ManLev, N-levulinoylmannosamine]
incorporation of sialic acid analogs into cell surface glycoconjugates (cultured cells): resulted in incorporation of the downstream sialic acid analogs

[N-]=[N+]=NCC(=O)N[C@@H]1C(O)O[C@H](CO)[C@@H](O)[C@@H]1O (some centres unmarked) [ManNAz, N-azidoacetylmannosamine]
incorporation of sialic acid analogs into cell surface glycoconjugates (cultured cells): resulted in incorporation of the downstream sialic acid analogs
